According to publication PMC4608732, “Phosphorylation and Internalization of Lysophosphatidic Acid Receptors LPA1, LPA2, and LPA3” (PLoS ONE, 2015):

What was measured:
[1] = system: wild-type C9 cells; test: Intracellular calcium concentration response to LPA, wild type C9 cells; type: cell-based, rat
Procedure: (§1) C9 cells (Clone 9, rat hepatic epithelial cells, CRL-1439™), obtained directly from American Type Culture Collection, were cultured in Ham’s F12 Kaighn’s modification medium supplemented with 10% fetal bovine serum, 100 μg/ml streptomycin, 100 units/ml penicillin and 0.25 μg/ml amphotericin B at 37°C under a 95% air and 5% CO2 atmosphere, as described previously. The medium was replaced with one containing 1% fetal bovine serum, 12–16 h before the experiment. C9 cells stably expressing the mouse LPA1 receptor fused at the carboxyl termini with eGFP were those previously described. […] As depicted in”Fig A in S1 File”, expression of LPA1 and LPA2 receptors was similar (~80%) whereas that of LPA3 was consistently lower (~60%), as evidenced by fluorescence imaging and flow cytometry. Flow cytometry was performed using an Attune NxT Acoustic Focusing Cytometer, employing excitation of 488 nm; data were analyzed using the Attune cytometric software included with the equipment.
(§2) This procedure has been described previously. […] Determinations were carried in an AMINCO-Bowman Series 2 luminescence spectrometer, employing 340 and 380 nm excitation wavelengths and an emission wavelength of 510 nm; chopper interval was 0.5 sec. The intracellular calcium concentration was calculated as described by Grynkiewicz et al.. […]

[2] = biological target: T1, LPA2 receptor (Homo sapiens, UniProt Q9HBW0); test: Intracellular calcium concentration response to LPA, C9 cells overexpressing LPA2; type: cell-based
T1 sequence (Q9HBW0 whole entry): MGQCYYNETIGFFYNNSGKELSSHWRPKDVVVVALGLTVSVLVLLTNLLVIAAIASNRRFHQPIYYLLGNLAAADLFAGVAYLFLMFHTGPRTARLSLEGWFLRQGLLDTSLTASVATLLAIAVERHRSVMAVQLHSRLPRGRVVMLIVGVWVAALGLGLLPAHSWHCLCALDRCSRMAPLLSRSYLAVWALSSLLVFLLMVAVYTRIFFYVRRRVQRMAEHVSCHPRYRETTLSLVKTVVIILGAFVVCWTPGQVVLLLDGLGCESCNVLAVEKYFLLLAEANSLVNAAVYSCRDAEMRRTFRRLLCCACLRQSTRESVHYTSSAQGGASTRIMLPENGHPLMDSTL
Procedure: as §1, §2

[3] = biological target: T2, LPA3 receptor (Homo sapiens, UniProt Q9UBY5); test: Intracellular calcium concentration response to LPA, C9 cells overexpressing LPA3; type: cell-based; conditions: cells over-expressing LPA3
T2 sequence (Q9UBY5 1-353): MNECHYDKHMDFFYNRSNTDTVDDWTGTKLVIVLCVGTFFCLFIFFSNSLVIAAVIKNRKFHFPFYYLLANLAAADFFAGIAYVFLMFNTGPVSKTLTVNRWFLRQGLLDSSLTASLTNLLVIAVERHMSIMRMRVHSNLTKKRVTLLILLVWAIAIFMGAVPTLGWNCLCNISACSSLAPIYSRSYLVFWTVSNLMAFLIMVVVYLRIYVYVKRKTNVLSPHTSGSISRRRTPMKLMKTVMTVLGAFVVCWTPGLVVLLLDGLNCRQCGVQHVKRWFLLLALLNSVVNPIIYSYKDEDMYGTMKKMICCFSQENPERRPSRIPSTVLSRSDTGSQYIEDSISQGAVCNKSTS
Procedure: C9 cells (Clone 9, rat hepatic epithelial cells, CRL-1439™), obtained directly from American Type Culture Collection, were cultured in Ham’s F12 Kaighn’s modification medium supplemented with 10% fetal bovine serum, 100 μg/ml streptomycin, 100 units/ml penicillin and 0.25 μg/ml amphotericin B at 37°C under a 95% air and 5% CO2 atmosphere, as described previously [11]. The medium was replaced with one containing 1% fetal bovine serum, 12–16 h before the experiment. C9 cells stably expressing the mouse LPA1 receptor fused at the carboxyl termini with eGFP were those previously described [11]. […] Flow cytometry was performed using an Attune NxT Acoustic Focusing Cytometer, employing excitation of 488 nm; data were analyzed using the Attune cytometric software included with the equipment.
Briefly, cells were loaded with 2.5 μM Fura-2 AM in Krebs–Ringer–Hepes containing 0.05% bovine serum albumin (pH 7.4) for 1 h at 37°C and then washed to eliminate unincorporated indicator. Determinations were carried in an AMINCO-Bowman Series 2 luminescence spectrometer, employing 340 and 380 nm excitation wavelengths and an emission wavelength of 510 nm; chopper interval was 0.5 sec. The intracellular calcium concentration was calculated as described by Grynkiewicz et al. [27]. […]

[4] = biological target: T2, LPA3 receptor; test: Heterologous (PMA) / homologous (LPA) desensitization of LPA-induced calcium response, LPA3 cells; type: cell-based; conditions: preincubation 10 min, washed, challenge 1 μM LPA, LPA3 cells
Procedure: This procedure has been described previously. Briefly, cells were loaded with 2.5 μM Fura-2 AM in Krebs–Ringer–Hepes containing 0.05% bovine serum albumin (pH 7.4) for 1 h at 37°C and then washed to eliminate unincorporated indicator. Determinations were carried in an AMINCO-Bowman Series 2 luminescence spectrometer, employing 340 and 380 nm excitation wavelengths and an emission wavelength of 510 nm; chopper interval was 0.5 sec. The intracellular calcium concentration was calculated as described by Grynkiewicz et al.. In the experiments where prolonged incubation was required (resensitization studies), cells were stimulated, washed, and the incubation was continued in the presence of Fura-2 AM, to avoid dye depletion.
Agonists-mediated decreases occurred in a concentration-dependent fashion, with a maximum at the concentration of ~ 100 nM. […] It is worth noticing that the shift in the curves was more pronounced in LPA1- or LPA3-expressing cells, than in those that expressed the LPA2 subtype.
Plotted are the increases in calcium as the percentage of that obtained in cells preincubated without any agent as mean ± S. E. M. of 6 experiments using different cell preparations.

[5] = biological target: T1, LPA2 receptor; test: LPA2 receptor phosphorylation ([32P]Pi labeling, immunoprecipitation); type: cell-based
Procedure: The procedure was very similar to that previously described to study LPA1 receptor phosphorylation. In brief, cells were incubated in phosphate-free Dulbecco’s modified Eagle’s medium containing 100 μCi/ml [^32P]Pi for 3 h at 37°C. LPA1- and LPA2-expressing cells were cultured in 6 well plates, whereas those expressing LPA3 receptors were cultured in 10 cm dishes. Labeled cells were stimulated with the agents tested and then washed twice with ice-cold phosphate buffered saline and solubilized in buffer containing 10 mM Tris, 150 mM NaCl, 1% sodium cholate, 1% Nonident P40, protease and phosphatase inhibitors, pH 7.4 [11, 12, 14]. The lysates were incubated overnight with protein A-agarose and anti-GFP serum with constant agitation at 4°C. Samples were washed and the pellets containing the immunocomplexes were solubilized in Laemmli’s sample buffer containing 5% β-mercaptoethanol. Proteins were separated using 10% SDS-PAGE and electrotransferred onto polyvinyliden fluoride membranes. Receptor phosphorylation was analyzed with a Molecular Dynamics Typhoon PhosphorImager and the ImageJ software (http://rsb.info.nih.gov/ij/).

[6] = system: ERK 1/2; test: ERK 1/2 phosphorylation (Western blotting) in C9 cells overexpressing LPA1-3; type: cell-based, rat; conditions: 1 μM LPA, 5 min, cells overexpressing LPA1-3
Procedure: Cells were cultured to near confluence in 6 well plates and stimulated with the agents tested for the times indicated. Total cellular extracts were obtained by lysing the cells in Laemmli’s sample buffer containing 5% β-mercaptoethanol. The cell extracts were subject to 10% SDS-PAGE and transferred to nitrocellulose membranes. Membranes from samples obtained in parallel were incubated overnight at 4°C, with anti-pERK 1/2 (1:2000) or anti ERK 1/2 (1:2000). The membranes were washed and incubated for 1 h at room temperature with a horseradish peroxidase-conjugated secondary antibody (1:10,000) for enhanced chemiluminescence detection.

[7] = biological target: T1, LPA2 receptor; test: LPA2 receptor internalization, confocal imaging; type: cell-based; conditions: LPA2 cells
Procedure: (§3) Cells were seeded at approximately 30% confluence onto glass-bottomed Petri dishes and cultured for 3 h at 37°C in media containing 1% serum. After treatment, cells were washed three times with phosphate buffered saline and fixed with 4% paraformaldehyde in 0.1 M phosphate buffer for 20 min at room temperature; samples were then washed three additional times with phosphate buffered saline. The fluorescent images were acquired with an Olympus Fluoview FV10 confocal microscope with a water-immersion objective (60X). To determine receptor internalization, the plasma membrane was delineated utilizing the differential interference contrast imaging, and fluorescence in this region was quantified employing the ImageJ software. At least 5 or 6 images of different cultures were taken for each condition. Data were normalized as follows: for each experiment, fluorescence (arbitrary units) at the plasma membrane of baseline samples were pooled and the average was considered as 100%.

[8] = biological target: T2, LPA3 receptor; test: LPA3 receptor internalization, confocal imaging; type: cell-based; conditions: LPA3 cells
Procedure: as §3

[9] = 1 μM LPA 10 min, washed, incubated to 60 or 120 min

Compound: CCCCCCCC/C=C\CCCCCCCC(=O)OC[C@@H](O)COP(=O)(O)O [LPA]
- maximal calcium concentration increase [1]: 150 to 200 nM
- EC50 ([1]; read-out: EC50, increase in intracellular calcium concentration): 200 to 400 nM
- LPA concentration response curve, intracellular calcium ([2]; LPA2-overexpressing cells, curve shifted to the right): no clear saturation was achieved at the concentrations tested
- calcium response (increase of the cation's concentration) ([2]; cells over-expressing LPA2): 450 to 600 nM
- calcium response (increase of the cation's concentration) [3]: ~ 300 nM
- concentration giving maximum homologous desensitization [4]: ~ 100 nM
- time to maximum receptor phosphorylation ([5]; 1 μM agent, LPA2 cells): ≤ 15 min
- concentration-response curve, receptor phosphorylation ([5]; 15 min incubation, LPA2-overexpressing cells, shift to higher concentrations): no clear saturation was obtained
- increase in ERK phosphorylation [6]: ~ 2 fold
- recovery of fluorescence at the membrane level after washing [7, 9]: slowly
- receptor internalization (decrease in fluorescence at the plasma membrane, compared with other subtypes) ([7]; 1 μM agent, 30 or 60 min): much less intense
- recovery of fluorescence at the membrane level after washing [8, 9]: only partially and also slowly
- receptor internalization (fluorescence at the plasma membrane) ([8]; 1 μM agent, 30 or 60 min): markedly decreasing fluorescence at the plasma membrane level
